Results reported in DBAASP.
In brackets after ≈: the same amount, converted by molar mass.

What was measured:
Experiment in all cases: ≥ marks a high value that may be exact or a test limit, other limits are often not marked, values filed in µg/mL are converted to µM
[1] = test system: Candida albicans
[2] = test system: Escherichia coli
[3] = test system: Bacillus subtilis
[4] = test system: Staphylococcus aureus
[5] = test system: Pseudomonas aeruginosa ATCC 9027
[6] = test system: Staphylococcus aureus ATCC 6538
[7] = test system: Candida albicans ATCC 90028
[8] = test system: Bacillus subtilis ATCC 6633
[9] = test system: Staphylococcus aureus ATCC 43300

MIC [2] [µM]	MIC [3] [µM]	Structure (SMILES)	MIC [5] [µM]	MIC [6] [µM]	further results
9.77 (≈ 17.5 µg/mL)	9.77 (≈ 17.5 µg/mL)	CC[C@H](C)[C@@H]1NC(=O)[C@H](Cc2ccc(O)cc2)NC(=O)[C@@H](NC(=O)[C@H](CCCN=C(N)N)NC(=O)[C@H](CO)NC(=O)[C@@H](N)[C@@H](C)O)CSSC[C@@H](C(=O)N[C@@H](CO)C(=O)O)NC(=O)[C@H](C(C)C)NC(=O)[C@H](C(C)C)NC(=O)[C@H](CCCCN)NC(=O)[C@H](CCCN=C(N)N)NC(=O)[C@H](CCCN=C(N)N)NC(=O)[C@H](Cc2ccc(O)cc2)NC(=O)CNC1=O [TSRCYIGYRRKVVCS]	–	–	MIC [1]: 4.89 µM (≈ 8.74 µg/mL); MIC [4]: 19.5 µM (≈ 35 µg/mL)
–	–	CC(C)C[C@H](NC(=O)[C@H](CCCCN)NC(=O)[C@H](C)NC(=O)[C@H](CC(C)C)NC(=O)[C@H](CC(C)C)NC(=O)[C@H](CCCCN)NC(=O)[C@H](C)NC(=O)[C@@H](N)Cc1ccccc1)C(=O)N[C@@H](C)C(=O)N[C@@H](CCCCN)C(N)=O [FAKLLAKLAK]	181 (≈ 200 µg/mL)	45.4 (≈ 50 µg/mL)	–
100 (≈ 150 µg/mL)	≥ 75	CC[C@H](C)[C@H](NC(=O)[C@H](CO)NC(=O)[C@H](C)NC(=O)[C@@H](NC(=O)[C@H](CCCCN)NC(=O)[C@@H](N)CCCCN)[C@@H](C)CC)C(=O)NCC(=O)N[C@@H](CCCCN)C(=O)N[C@@H](CCC(=O)O)C(=O)N[C@H](C(=O)N[C@@H](CC(C)C)C(=O)N[C@@H](CCCCN)C(=O)N[C@@H](C)C(=O)N[C@@H](CC(C)C)C(N)=O)C(C)C [KKIASIGKEVLKAL]	–	–	–
93.5 (≈ 161 µg/mL)	5.81 (≈ 9.99 µg/mL)	CC[C@H](C)[C@H](NC(=O)[C@H](CC(C)C)NC(=O)[C@H](C)NC(=O)[C@@H]1CCCN1C(=O)[C@H](CC(C)C)NC(=O)CN)C(=O)N[C@@H](CO)C(=O)N[C@@H](CC(C)C)C(=O)N[C@H](C(=O)N[C@@H](CCCCN)C(=O)N[C@@H](CCCN=C(N)N)C(=O)N[C@@H](CCCCN)C(=O)N[C@@H](CCCN=C(N)N)C(=O)N[C@@H](CCC(N)=O)C(=O)N[C@@H](CCC(N)=O)C(N)=O)[C@@H](C)CC [GLPALISLIKRKRQQ]	–	–	MIC [4]: 7.84 µM (≈ 13.5 µg/mL)
–	–	CC(C)C[C@H](NC(=O)[C@@H](NC(=O)[C@H](CCCCN)NC(=O)[C@H](CCCCN)NC(=O)[C@H](C)NC(=O)[C@H](CC(C)C)NC(=O)[C@H](CCCCN)NC(=O)[C@H](C)NC(=O)[C@H](CC(C)C)NC(=O)[C@H](CC(C)C)NC(=O)[C@H](CCCCN)NC(=O)[C@H](C)NC(=O)[C@@H](N)Cc1ccccc1)C(C)C)C(N)=O [FAKLLAKLAKKVL]	69.3 (≈ 99.9 µg/mL)	3.47 (≈ 5 µg/mL)	–
–	–	CC(C)C[C@H](NC(=O)[C@H](CC(C)C)NC(=O)[C@H](CCCCN)NC(=O)[C@H](C)NC(=O)[C@H](CC(C)C)NC(=O)[C@H](CCCCN)NC(=O)[C@H](CCCCN)NC(=O)[C@H](C)NC(=O)[C@H](CC(C)C)NC(=O)[C@H](CCCCN)NC(=O)[C@H](CCCCN)NC(=O)[C@H](C)NC(=O)[C@@H](N)Cc1ccccc1)C(N)=O [FAKKLAKKLAKLL]	3.4 (≈ 5 µg/mL)	3.4 (≈ 5 µg/mL)	–
–	–	CC(C)C[C@H](NC(=O)CNC(=O)[C@@H](NC(=O)[C@@H]1CCCN1C(=O)[C@H](CC(C)C)NC(=O)CNC(=O)[C@H](CC(N)=O)NC(=O)[C@H](CC(N)=O)NC(=O)[C@H](Cc1c[nH]c2ccccc12)NC(=O)[C@@H](NC(=O)[C@H](CCCN=C(N)N)NC(=O)[C@H](CS)NC(=O)[C@H](CCCN=C(N)N)NC(=O)[C@H](Cc1cnc[nH]1)NC(=O)[C@H](CCCCN)NC(=O)[C@H](CCCCN)NC(=O)[C@H](CCCN=C(N)N)NC(=O)[C@@H](N)CCCCN)C(C)C)[C@@H](C)O)C(=O)N[C@@H](Cc1ccc(O)cc1)C(=O)N[C@@H](CCCN=C(N)N)C(=O)N[C@@H](Cc1c[nH]c2ccccc12)C(=O)N[C@@H](CS)C(N)=O [KRKKHRCRVWNNGLPTGLYRWC]	–	8 (≈ 22.2 µg/mL)	–
–	–	CC(C)C[C@H](NC(=O)[C@H](C)NC(=O)[C@H](CCCCN)NC(=O)[C@H](CCCCN)NC(=O)[C@H](CC(C)C)NC(=O)[C@H](C)NC(=O)[C@H](CCCCN)NC(=O)[C@H](CCCCN)NC(=O)[C@H](CC(C)C)NC(=O)[C@H](CCCCN)NC(=O)[C@H](CCCCN)NC(=O)[C@H](CC(C)C)NC(=O)[C@H](C)NC(=O)[C@H](CCCCN)NC(=O)[C@H](CCCCN)NC(=O)[C@H](Cc1ccccc1)NC(=O)[C@H](CC(C)C)NC(=O)[C@H](CCCCN)NC(=O)[C@H](Cc1c[nH]c2ccccc12)NC(=O)[C@@H](N)CCCCN)C(N)=O [KWKLFKKALKKLKKALKKAL]	4.15 (≈ 10 µg/mL)	4.15 (≈ 10 µg/mL)	–
–	–	CC(C)C[C@H](NC(=O)[C@H](CCCCN)NC(=O)[C@H](CCCCN)NC(=O)[C@H](C)NC(=O)[C@H](CC(C)C)NC(=O)[C@H](CCCCN)NC(=O)[C@H](C)NC(=O)[C@H](CC(C)C)NC(=O)[C@H](CCCCN)NC(=O)[C@H](CCCCN)NC(=O)[C@H](CC(C)C)NC(=O)[C@H](CCCCN)NC(=O)[C@H](CCCCN)NC(=O)[C@H](C)NC(=O)[C@@H](N)Cc1ccccc1)C(N)=O [FAKKLKKLAKLAKKL]	2.89 (≈ 5 µg/mL)	5.79 (≈ 9.99 µg/mL)	–
–	–	CC[C@H](C)[C@H](NC(=O)CNC(=O)[C@H](CCCCN)NC(=O)CNC(=O)[C@H](Cc1ccccc1)NC(=O)[C@H](C)NC(=O)[C@H](CC(C)C)NC(=O)[C@H](CCCCN)NC(=O)[C@H](C)NC(=O)[C@H](Cc1c[nH]c2ccccc12)NC(=O)[C@H](CC(C)C)NC(=O)[C@H](CCCCN)NC(=O)[C@H](C)NC(=O)[C@@H](N)Cc1ccccc1)C(=O)NCC(=O)N[C@@H](CCCCN)C(=O)N[C@H](C(=O)NCC(=O)N[C@@H](CCCCN)C(=O)N[C@@H](CCCCN)C(=O)N[C@@H](CC(C)C)C(=O)N[C@@H](CC(C)C)C(N)=O)C(C)C [FAKLWAKLAFGKGIGKVGKKLL]	4.21 (≈ 10 µg/mL)	6.32 (≈ 15 µg/mL)	–
–	–	CC[C@H](C)[C@@H]1NC(=O)[C@H](C)NC(=O)[C@@H](NC(=O)[C@@H](NC(=O)[C@@H](NC(=O)[C@H](C)NC(=O)[C@@H]2CCCN2C(=O)CNC(=O)[C@@H](NC(=O)[C@H](CCCCN)NC(=O)[C@@H](NC(=O)[C@@H](NC(=O)[C@H](CC(C)C)NC(=O)[C@H](CCCN=C(N)N)NC(=O)[C@H](CC(C)C)NC(=O)[C@@H](NC(=O)CNC(=O)[C@@H]2CCCN2C(=O)[C@H](CC(C)C)NC(=O)[C@@H](N)Cc2ccccc2)C(C)C)C(C)C)[C@@H](C)O)C(C)C)C(C)C)C(C)C)CSSC[C@@H](C(=O)O)NC(=O)[C@H](CC(N)=O)NC(=O)[C@H](CCCN=C(N)N)NC(=O)[C@H]([C@@H](C)O)NC1=O [FLPGVLRLVTKVGPAVVCAITRNC]	–	3.1 (≈ 7.83 µg/mL)	MIC [7]: ≥ 50 µM; MIC [8]: 6.3 µM (≈ 15.9 µg/mL); MIC [9]: 3.1 µM (≈ 7.83 µg/mL)

Structure (SMILES)	MIC [2] [µM]	MIC [3] [µM]	MIC [5] [µM]	MIC [6] [µM]	further results
CC[C@H](C)[C@H](NC(=O)[C@H](CC(C)C)NC(=O)[C@H](CC(C)C)NC(=O)[C@H](CC(=O)O)NC(=O)[C@H](CCCCN)NC(=O)[C@@H](NC(=O)[C@H](C)NC(=O)CNC(=O)[C@H](CC(C)C)NC(=O)[C@@H](NC(=O)CN)C(C)C)C(C)C)C(=O)NCC(=O)N[C@@H](C)C(=O)NCC(=O)N[C@@H](CCCCN)C(=O)N[C@@H](CO)C(=O)N[C@@H](C)C(=O)N[C@@H](C)C(=O)N[C@@H](CCC(N)=O)C(=O)N[C@@H](CO)C(=O)N[C@H](C(=O)N[C@@H](CC(C)C)C(=O)N[C@@H](CCCCN)C(=O)N[C@H](C(=O)N[C@@H](CC(C)C)C(=O)N[C@@H](CO)C(=O)N[C@H]1CSSC[C@@H](C(=O)O)NC(=O)[C@H](CC(=O)O)NC(=O)[C@H](CC(N)=O)NC(=O)[C@H](CO)NC(=O)[C@H](CC(C)C)NC(=O)[C@H](CCCCN)NC1=O)[C@@H](C)O)C(C)C [GVLGAVKDLLIGAGKSAAQSVLKTLSCKLSNDC]	2.52 (≈ 8.21 µg/mL)	5.04 (≈ 16.4 µg/mL)	–	–	MIC [1]: 0.629 µM (≈ 2.05 µg/mL); MIC [4]: 1.26 µM (≈ 4.11 µg/mL)
